Reference: paper PMC7179119, “A New Positron Emission Tomography Probe for Orexin Receptors Neuroimaging” (Molecules, 2020)

Legend:
OXRs = experiment: Mouse PET-CT blocking study of [^11C]CW24 uptake; type: in vivo, mice
Description: (§1) Animals were anesthetized with 1–1.5% isoflurane and maintained with isoflurane during the imaging scan. In a single imaging session, mice were arranged in a Triumph PET/CT scanner (Gamma Medica, Northridge, CA). […] Animals underwent a 60 min dynamic PET scan followed by computed tomography (CT).
(§2) PET data were reconstructed using a 3D-MLEM method resulting in a full width at half-maximum resolution of 1 mm. PET and CT images in DICOM format were imported to PMOD (PMOD Technologies, Ltd. Zürich, Switzerland) and co-registered to the brain atlas. Volumes of interest (VOIs) were drawn as spheres in brain regions guided by CT structural images and summed PET data. Time-activity curves (TACs) were exported as activity per unit volume (%ID/cc) for analysis.

[1] = target: T1, human recombinant orexin OX1 receptors (Homo sapiens, UniProt O43613); experiment: Human Orexin GPCR Binding (Agonist Radioligand) Assay, [125I] Orexin A competition; details: radioligand competition binding assay; read-out: IC50 (nM) OXR1
T1 construct: host or cells: CHO-S cells
T1 sequence (O43613 1-425): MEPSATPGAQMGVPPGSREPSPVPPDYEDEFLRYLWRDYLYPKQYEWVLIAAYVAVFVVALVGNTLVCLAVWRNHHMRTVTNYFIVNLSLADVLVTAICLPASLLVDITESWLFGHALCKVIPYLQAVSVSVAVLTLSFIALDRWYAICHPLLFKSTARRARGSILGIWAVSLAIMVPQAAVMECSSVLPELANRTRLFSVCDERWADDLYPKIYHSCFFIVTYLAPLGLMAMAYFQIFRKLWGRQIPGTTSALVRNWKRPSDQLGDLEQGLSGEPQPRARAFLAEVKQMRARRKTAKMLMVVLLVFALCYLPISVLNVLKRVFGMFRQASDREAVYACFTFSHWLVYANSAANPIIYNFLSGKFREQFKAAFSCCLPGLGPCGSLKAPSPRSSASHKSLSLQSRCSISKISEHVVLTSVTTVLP
Description: (§3) Radioligand competition binding assays were performed by Panlabs, Eurofins Pharma Discovery Services. Briefly, human recombinant orexin OX1 receptors expressed in CHO-S cells were used in modified HEPES buffer pH 7.4. […] Orexin A for 60 minutes at 25 °C. […] Orexin A specifically binding. Human recombinant OX2 receptors were used in modified HEPES buffer pH 7.4. […] Orexin A for 180 minutes at 25 °C. […] Orexin A specifically bound.

[2] = target: T2, Human recombinant OX2 receptors (Homo sapiens, UniProt O43614); experiment: as above; details: radioligand competition binding assay; read-out: IC50 (nM) OXR2
T2 sequence (O43614 1-444): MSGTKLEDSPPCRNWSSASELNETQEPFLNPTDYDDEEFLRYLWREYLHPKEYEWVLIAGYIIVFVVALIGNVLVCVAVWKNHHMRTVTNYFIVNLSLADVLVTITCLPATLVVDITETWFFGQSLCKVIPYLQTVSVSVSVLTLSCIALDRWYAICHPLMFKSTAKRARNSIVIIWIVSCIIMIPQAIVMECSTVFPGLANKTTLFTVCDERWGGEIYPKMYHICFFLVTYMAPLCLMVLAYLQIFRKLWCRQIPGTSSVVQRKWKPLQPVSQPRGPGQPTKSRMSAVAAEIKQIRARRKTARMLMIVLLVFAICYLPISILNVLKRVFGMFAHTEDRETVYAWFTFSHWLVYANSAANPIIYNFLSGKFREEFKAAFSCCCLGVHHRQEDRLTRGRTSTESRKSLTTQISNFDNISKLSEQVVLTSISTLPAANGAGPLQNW
Description: as §3

[3] = Plasma and metabolite analysis; type: in vivo, rhesus macaque; details: macaque arterial plasma, at 30 min
Description: Briefly, arterial blood samples collected (every 10 s at first 3 min post-administration of [^11C]CW24, then 5 min, 10 min, 20 min, 30 min, 45 min, 60 min, and 90 min) during macaque imaging were centrifuged to separate plasma, which was then removed and placed in an automated gamma counter. Metabolite analysis of blood samples collected from 5 to 90 min was conducted on a custom automated robot fitted with Phenomenex SPE Strata-X 500 mg solid phase extraction cartridges that were primed with ethanol (2 mL) and deionized water (20 mL). Protein precipitation was achieved by the addition of plasma (300 μL) to acetonitrile (300 μL), which was centrifuged for 1 min to obtain protein-free plasma (PFP). Three hundred microliters of PFP/acetonitrile solution was diluted into deionized water (3 mL), loaded onto the C18 cartridge, and removed of polar metabolites with 100% water. Next, a series of extractions was performed using water and acetonitrile. Each sample was counted in a WIZARD2 Automatic Gamma Counter to determine the presence of radiolabeled metabolites.

[4] = Mouse PET-CT imaging, brain uptake; type: in vivo; details: mice, i.v., baseline
Description: as §1, §2

[5] = Macaque PET-MR imaging and Logan plot kinetic modeling; type: in vivo, rhesus macaque; details: all brain regions examined
Description: A male rhesus macaque (14.4 kg) was included in this study. After endotracheal intubation, the macaque was catheterized antecubitally for radiotracer injection and a radial arterial line was placed for arterial blood sampling and radiometabolite analysis. The animal was anesthetized with 1.2–1.3% Isoflurane in medical oxygen throughout the imaging session. PET-MR data was acquired on a 3T Siemens MRI scanner (Munich, Germany) with a BrainPET insert. A baseline and a blocking scan were performed on the same animal. Dynamic PET image acquisition was initiated followed by a bolus administration of [^11C]CW24 (179 MBq for the baseline scan and 192 MBq for the blocking scan). To characterize the specific binding of [^11C]CW24, a blocking study was carried out in which 2.0 mg/kg IPSU (1.0 % DMSO + 1.0 % Tween 80 + 98.0 % saline to make a solution of 1.0 mg/mL) was administered 5 min prior the acquisition. A T1-weighting multi-echo magnetization-prepared rapid gradient-echo ([…]) sequence began as the PET scan for anatomic co-registration. […]
Motion-corrected PET data were registered to the INIA19 macaque MRI Template. […] With the availability of a metabolite-corrected arterial plasma data, the regional volume of distribution (VT) was calculated using Logan Plot analysis (with a fixed t* of 40 min).

OX2R = OX2R vs OX1R; cited from earlier work

## COc1ccnc(N2CCC3(CCCN(Cc4c[nH]c5ccccc45)C3=O)CC2)n1 [IPSU, reference compound]
OXRs; mice brain, 0.5 mg/kg IPSU i.v. 5 min pretreatment, 30–60 mins post-injection
  reduction in [^11C]CW24 uptake: Approximately 10%
OXRs; mice brain, 2.0 mg/kg IPSU i.v. 5 min pretreatment
  reduction in [^11C]CW24 uptake: approximately 50%
[1]
  IC50: 1090 nM
[2]
  IC50: 3130 nM

## Cc1ccc(-n2nccn2)c(C(=O)N2CCN(c3nc4cc(Cl)ccc4o3)CC[C@H]2C)c1 [Suvorexant]
OXRs; mouse brain, Suvorexant 5.0 mg/kg i.v., 30–60 mins post-injection
  reduction in [^11C]CW24 uptake: approximately 50%

## COc1ccnc(N2CCC3(CCCN(Cc4cn([11CH3])c5ccccc45)C3=O)CC2)n1 [[^11C]CW24]
[3]
  parent compound in plasma: ~ 47%
[4]
  brain uptake %ID/cc at Cmax: 3.5 %ID/cc
[5]
  peak standard uptake value (SUV): 1.5–3.0

## orexin-B: orexin peptide with 28 amino acids
OX2R
  higher affinity for OX2R compared with OX1R: 10 fold
